Measurements taken from patent publication US20090062294A1, “HETEROARYL-SUBSTITUTED UREA MODULATORS OF FATTY ACID AMIDE HYDROLASE” (priority 2007, published 2009).
pIC50: −log10 of the molar value. Where a name gives a salt, the structure may show the parent alone.

Columns and labels:
FAAH = biological target: T1, FAAH (Homo sapiens, UniProt O00519); test: Assay Method 1: FAAH assay, 3H-anandamide hydrolysis in homogenate of T84 cells or SK-N-MC cells transfected with human FAAH; format: biochemical; conditions: average of results, > = solubility limit or highest concentration tested
T1 sequence (O00519 1-579): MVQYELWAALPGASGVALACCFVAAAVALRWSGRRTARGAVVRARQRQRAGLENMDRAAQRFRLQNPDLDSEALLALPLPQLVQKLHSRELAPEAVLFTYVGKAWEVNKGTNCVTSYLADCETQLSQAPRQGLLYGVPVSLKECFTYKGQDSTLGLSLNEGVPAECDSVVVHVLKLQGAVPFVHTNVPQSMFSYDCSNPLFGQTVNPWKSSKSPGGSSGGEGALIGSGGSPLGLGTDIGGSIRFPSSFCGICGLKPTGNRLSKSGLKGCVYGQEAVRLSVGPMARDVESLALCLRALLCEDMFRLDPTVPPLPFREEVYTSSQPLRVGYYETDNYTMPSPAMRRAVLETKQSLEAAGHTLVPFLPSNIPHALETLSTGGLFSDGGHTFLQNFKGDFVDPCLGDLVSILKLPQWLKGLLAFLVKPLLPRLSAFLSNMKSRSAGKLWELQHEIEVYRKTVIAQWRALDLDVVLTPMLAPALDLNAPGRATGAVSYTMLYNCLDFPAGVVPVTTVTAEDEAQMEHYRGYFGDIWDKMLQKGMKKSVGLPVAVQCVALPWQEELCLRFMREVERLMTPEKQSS
Outline: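 Hydrolysis of ^3H-anandamide (80 nM final, added last) was measured over 1 h at rt, using test compound with homogenate of T84 cells or human FAAH-transfected SK-N-MC cells. The homogenization buffer was 125 mM Tris, 1 mM EDTA, 0.02% Triton X-100, pH 9. Unbound labelled ethanolamine was passed through charcoal filters and scintillation-counted.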

rat FAAH = biological target: T2, rat FAAH (Rattus norvegicus, UniProt P97612); test: Assay Method 2: FAAH assay, 3H-anandamide hydrolysis in homogenate of SK-N-MC cells transfected with rat FAAH; format: biochemical; conditions: average of results, > = solubility limit or highest concentration tested
T2 sequence (P97612 1-579): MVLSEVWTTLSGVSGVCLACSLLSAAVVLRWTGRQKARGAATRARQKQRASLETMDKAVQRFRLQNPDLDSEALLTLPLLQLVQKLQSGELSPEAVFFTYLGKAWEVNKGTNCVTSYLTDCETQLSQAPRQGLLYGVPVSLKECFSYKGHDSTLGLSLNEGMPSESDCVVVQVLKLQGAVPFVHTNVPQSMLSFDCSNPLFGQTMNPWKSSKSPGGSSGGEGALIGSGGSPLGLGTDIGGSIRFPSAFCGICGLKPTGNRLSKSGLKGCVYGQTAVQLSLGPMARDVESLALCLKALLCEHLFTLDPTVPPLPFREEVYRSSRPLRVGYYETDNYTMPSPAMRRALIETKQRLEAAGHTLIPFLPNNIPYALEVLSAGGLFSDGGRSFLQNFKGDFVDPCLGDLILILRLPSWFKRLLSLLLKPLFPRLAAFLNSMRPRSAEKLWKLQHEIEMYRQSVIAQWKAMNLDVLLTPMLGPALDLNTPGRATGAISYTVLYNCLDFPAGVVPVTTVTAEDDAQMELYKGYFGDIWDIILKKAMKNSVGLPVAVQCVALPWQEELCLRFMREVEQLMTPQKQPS
Outline: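 Read-out is scintillation counting of [3H]-ethanolamine passing through activated charcoal, after 1 h at rt with 80 nM final [3H]-AEA. Enzyme source: lysate of G418-selected SK-N-MC clones expressing rat FAAH, homogenized in Tris/EDTA/glycerol/0.02% Triton buffer, pH 9.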

Row | pIC50 (FAAH) | pIC50 (rat FAAH) | SMILES
1 | 8.30 | 7.06 | O=C(Nc1nnn[nH]1)N1CCC(Cc2ccc3ccccc3c2)CC1 [Example 13, 4-Naphthalen-2-ylmethyl-piperidine-1-carboxylic acid (1H-tetrazol-5-yl)-amide]
2 | 7.64 | 8.30 | O=C(Nc1noc2ccccc12)N1CCN(Cc2cccc(Oc3ccc(S(=O)(=O)C(F)(F)F)cc3)c2)CC1 [Example 132, N-1,2-Benzisoxazol-3-yl-4-(3-{4-[(trifluoromethyl)sulfonyl]phenoxy}-benzyl)piperazine-1-carboxamide]
3 | 5.82 | 6.26 | O=C(Nc1cc[nH]n1)N1CCN(Cc2ccc(F)c(Oc3ccccc3)c2)CC1 [Example 56, 4-(4-Fluoro-3-phenoxy-benzyl)-piperazine-1-carboxylic acid (1H-pyrazol-3-yl)-amide trifluoroacetic acid salt]
4 | 6.00 | < 5.00 | N#Cc1ccc(Oc2cccc(CN3CCN(C(=O)Nc4ccon4)CC3)c2)cc1C(F)(F)F [Example 163, 4-{3-[4-Cyano-3-(trifluoromethyl)phenoxy]benzyl}-N-isoxazol-3-ylpiperazine-1-carboxamide]
5 | 7.28 | 7.52 | O=C(Nc1noc2ccccc12)N1CCN(Cc2cccc(Oc3ccc(F)c(F)c3)c2)CC1 [Example 33, 4-[3-(3,4-Difluoro-phenoxy)-benzyl]-piperazine-1-carboxylic acid benzo[d]isoxazol-3-ylamide]
6 | 6.96 | 6.51 | O=C(Nc1cccnn1)N1CCN(Cc2ccc(Br)c(Br)c2)CC1 [Example 195, 4-(3,4-Dibromobenzyl)-N-pyridazin-3-ylpiperazine-1-carboxamide]
7 | 6.07 | < 5.00 | N#Cc1cccc(Oc2cccc(CN3CCN(C(=O)Nc4ccon4)CC3)c2)c1 [Example 139, 4-[3-(3-Cyanophenoxy)benzyl]-N-isoxazol-3-ylpiperazine-1-carboxamide]
8 | 7.15 | 7.11 | Cc1ccccc1C#Cc1cccc(CN2CCN(C(=O)Nc3noc4ccccc34)CC2)c1 [Example 63, 4-(3-o-Tolylethynyl-benzyl)-piperazine-1-carboxylic acid benzo[d]isoxazol-3-ylamide]
9 | 7.68 | 7.77 | O=C(Nc1noc2ccccc12)N1CCN(Cc2cccc(Oc3ccc(F)cc3)c2)CC1 [Example 208, 4-[3-(4-Fluoro-phenoxy)-benzyl]-piperazine-1-carboxylic acid benzo[d]isoxazol-3-ylamide]
10 | 6.30 | 5.10 | O=C(Nc1cnccn1)N1CCN(Cc2ccc(Br)cc2)CC1 [Example 212, 4-(4-Bromobenzyl)-N-pyrazin-2-ylpiperazine-1-carboxamide]
11 | 6.99 | 6.65 | COC(=O)Cc1ccccc1C#Cc1cccc(CN2CCN(C(=O)Nc3noc4ccccc34)CC2)c1 [Example 93, Methyl {2-[(3-{[4-(1,2-benzisoxazol-3-ylcarbamoyl)piperazin-1-yl]methyl}phenyl)ethynyl]phenyl}acetate]
12 | 6.11 | 6.54 | O=C(Nc1ccsc1)N1CCN(Cc2ccc3c(c2)OC(F)(F)O3)CC1 [Example 8, 4-(2,2-Difluoro-benzo[1,3]dioxol-5-ylmethyl)-piperazine-1-carboxylic acid thiophen-3-ylamide]
13 | 7.92 | 7.19 | O=C(Nc1noc2ccccc12)N1CCN(Cc2cccc(C#Cc3ccsc3)c2)CC1 [Example 77, N-1,2-Benzisoxazol-3-yl-4-[3-(thiophen-3-ylethynyl)benzyl]-piperazine-1-carboxamide]
14 | 7.46 | 7.70 | O=C(Nc1noc2ccccc12)N1CCN(Cc2cccc(C#Cc3cc(Cl)cc(Cl)c3)c2)CC1 [Example 83, N-1,2-Benzisoxazol-3-yl-4-{3-[(3,5-dichlorophenyl)ethynyl]benzyl}-piperazine-1-carboxamide]
15 | 7.80 | 6.37 | O=C(Nc1ccon1)N1CCN(Cc2cccc(Oc3ccc(Br)cc3)c2)CC1 [Example 145, 4-[3-(4-Bromophenoxy)benzyl]-N-isoxazol-3-ylpiperazine-1-carboxamide]
16 | 7.35 | 7.07 | O=C(Nc1cccc2nsnc12)N1CCN(Cc2cccc(C#Cc3ccccc3)c2)CC1 [Example 202, N-2,1,3-Benzothiadiazol-4-yl-4-{[3-(phenylethynyl)phenyl]methyl}-piperazine-1-carboxamide]
17 | 5.80 | 5.92 | O=C(Nc1nn[nH]n1)N1CCN(Cc2cccc(OCc3ccccc3)c2)CC1 [Example 179, 4-(3-Benzyloxy-benzyl)-piperazine-1-carboxylic acid (2H-tetrazol-5-yl)-amide]
18 | 6.55 | 6.23 | O=C(Nc1cccnn1)N1CCN(Cc2ccc(Cl)c(Cl)c2)CC1 [Example 199, 4-(3,4-Dichlorobenzyl)-N-pyridazin-3-ylpiperazine-1-carboxamide]
19 | 6.39 | 6.49 | O=C(Nc1noc2ccccc12)N1CCN(Cc2cccc(C#Cc3ccc(Cl)cc3)c2)CC1 [Example 74, N-1,2-Benzisoxazol-3-yl-4-{3-[(4-chlorophenyl)ethynyl]benzyl}-piperazine-1-carboxamide]
20 | 6.83 | 6.94 | O=C(Nc1noc2ccccc12)N1CCN(Cc2cccc(Oc3ccccc3Cl)c2)CC1 [Example 122, N-1,2-Benzisoxazol-3-yl-4-[3-(2-chlorophenoxy)benzyl]piperazine-1-carboxamide]
21 | 5.40 | 5.22 | O=C(Nc1cnccn1)N1CCN(Cc2cc3ccccc3o2)CC1 [Example 230, 4-Benzofuran-2-ylmethyl-piperazine-1-carboxylic acid pyrazin-2-ylamide]
22 | 5.52 | 6.24 | O=C(Nc1noc2ccccc12)N1CCN(Cc2cccc(C#Cc3cccc4ccccc34)c2)CC1 [Example 86, N-1,2-Benzisoxazol-3-yl-4-[3-(naphthalen-1-ylethynyl)benzyl]piperazine-1-carboxamide]
23 | 6.49 | 6.37 | O=C(Nc1cnccn1)N1CCN(Cc2ccc(Cl)c(Cl)c2)CC1 [Example 220, 4-(3,4-Dichlorobenzyl)-N-pyrazin-2-ylpiperazine-1-carboxamide]
24 | 7.70 | 7.10 | O=C(Nc1cnccn1)N1CCN(Cc2cccc(Oc3cccc(Br)c3)c2)CC1 [Example 240, 4-[3-(3-Bromophenoxy)benzyl]-N-pyrazin-2-ylpiperazine-1-carboxamide]
25 | 6.70 | 7.46 | O=C(Nc1nnn[nH]1)N1CCN(Cc2cccc(Oc3ccc(C(F)(F)F)cc3)c2)CC1 [Example 171, N-1H-Tetrazol-5-yl-4-{3-[4-(trifluoromethyl)phenoxy]benzyl}piperazine-1-carboxamide]
26 | 5.52 | < 5.00 | Cc1cc(NC(=O)N2CCN(Cc3cccc(Oc4ccc(Cl)cc4)c3)CC2)nn1C [Example 191, 4-[3-(4-Chloro-phenoxy)-benzyl]-piperazine-1-carboxylic acid (1,5-dimethyl-1H-pyrazol-3-yl)-amide trifluoroacetic acid salt]
27 | 7.35 | 7.38 | O=C(Nc1noc2ccccc12)N1CCN(Cc2cccc(Oc3ccccc3)c2)CC1 [Example 110, N-1,2-Benzisoxazol-3-yl-4-(3-phenoxybenzyl)piperazine-1-carboxamide]
28 | 9.00 | 7.52 | O=C(Nc1cnccn1)N1CCN(Cc2cccc(Oc3ccc(C(F)(F)F)cc3)c2)CC1 [Example 215, N-Pyrazin-2-yl-4-{3-[4-(trifluoromethyl)phenoxy]benzyl}piperazine-1-carboxamide]
29 | 5.70 | 6.44 | O=C(Nc1ccon1)N1CCN(Cc2ccc(F)c(Oc3ccccc3)c2)CC1 [Example 49, 4-(4-Fluoro-3-phenoxy-benzyl)-piperazine-1-carboxylic acid isoxazol-3-ylamide trifluoroacetic acid salt]
